According to patent US11505548B2, “Heterocyclic compounds and their use for treatment of helminthic infections and diseases” (Celgene Corporation, priority 2019, dated 2022):

Tested on: microfilariae of Dirofilaria immitis
Assay: Dirofilaria immitis, Microfilaria (DiMF) Assay
Format: cell-based
Conditions: read-out: D. immitis activity level (IC50 or MED)
Protocol: Heartworm Screen Dirofilaria immitis (D. immitis)
Dirofilaria immitis, Microfilaria (DiMF) Assay.
Compounds were dissolved and serially diluted in DMSO. Aliquots were spotted to the empty wells of assay plates. Media and microfilariae of Dirofilaria immitis were added to each well to dilute the test compounds to the desired concentrations. Assay plates were incubated for approximately 72 hours, and the larvae in each well were observed microscopically for drug effect. Microfilariae in each well were assessed subjectively for survival or paralysis, and results were reported as Minimum Effective Dose (MED).
Active and selective (DiL4 vs. DiMF potency) example compounds were subsequently evaluated in heartworm positive dog studies to correlate the in vitro selectivity profile with in vivo effects on circulating microfilariae.

Structure (SMILES)	IC50
Cc1cnc(Nc2nc(-c3cc(C(=O)N(C)C)c(OC(C)C)cn3)ns2)c(C(F)(F)F)c1 [Compound 254, 5-isopropoxy-N,N-dimethyl-2-(5-(5-methyl-3-(trifluoromethyl)pyridin-2-ylamino)-1,2,4-thiadiazol-3-yl)isonico-tinamide]	500 to 5000 nM
COc1ccnc(-c2nsc(Nc3ccc(C(F)(F)F)cn3)n2)c1 [Compound 176, 3-(4-methoxy-pyridin-2-yl)-N-(5-(trifluoromethyl)pyridin-2-yl)-1,2,4-thiadiazol-5-amine]	< 200 nM
CC(C)Oc1ccc(-c2nsc(Nc3ncccc3N(C)C)n2)nc1 [Compound 56, N2-(3-(5-isoprop-oxypyridin-2-yl)-1,2,4-thiadiazol-5-yl)-N3,N3 - dimethyl-pyridine-2,3-diamine]	200 to 500 nM
CC(=O)N1CCc2cc(-c3nsc(Nc4ncccc4C(F)(F)F)n3)ncc21 [Compound 267, 1-(5-(5-(3-(trifluoromethyl)pyridin-2-ylamino)-1,2,4-thiadiazol-3-yl)-2,3-dihydro-1H-pyrrolo[2,3-c]pyridin-1-yl)ethanone]	200 to 500 nM
Cc1ccnc(Nc2nc(-c3ncccc3C)ns2)c1 [Compound 238, 3-(3-methyl-pyridin-2-yl)-N-(4-methyl-pyridin-2-yl)-1,2,4-thiadiazol-5-amine]	200 to 500 nM
CC(=O)N(C)c1cccnc1Nc1nc(-c2ccc(OC(C)C)cn2)ns1 [Compound 157, N-(2-(3-(5-isopropoxy-pyridin-2-yl)-1,2,4-thiadiazol-5-ylamino)pyridin-3-yl)-N-methyl-acetamide]	500 to 5000 nM
CC(=O)N(C)c1cc(C(F)(F)F)cnc1Nc1nc(-c2cc3c(cn2)N(C)CC3)ns1 [Compound 249, N-methyl-N-(2-(3-(1-methyl-2,3-dihydro-1H-pyrrolo[2,3-c]pyridin-5-yl)-1,2,4-thiadiazol-5-ylamino)-5-(trifluoromethyl)pyridin-3-yl)acetamide]	< 200 nM
COc1ccc(Nc2nc(-c3cc(OC4CCCCC4)ccn3)ns2)nc1 [Compound 183, 3-(4-(cyclo-hexyloxy)pyridin-2-yl)-N-(5-methoxypyridin-2-yl)-1,2,4-thiadiazol-5-amine]	< 200 nM
COc1cccnc1Nc1nc(-c2cc(C(F)(F)F)c(OC3CC3)cn2)ns1 [Compound 134, 3-(5-cyclo-propoxy-4-(trifluoromethyl)pyridin-2-yl)-N-(3-methoxy-pyridin-2-yl)-1,2,4-thiadiazol-5-amine]	500 to 5000 nM
Cc1cccnc1Nc1nc(-c2ccc(OC3CCN(C4CC4)CC3)cn2)ns1 [Compound 45, 3-(5-(1-cyclo-propylpiperidin-4-yloxy)pyridin-2-yl)-N-(3-methylpyridin-2-yl)-1,2,4-thiadiazol-5-amine]	500 to 5000 nM
CC(C)Oc1cnc(-c2nsc(Nc3ncccc3N(C)C(=O)C3CC3)n2)cc1C(F)(F)F [Compound 186, N-(2-(3-(5-isopropoxy-4-(trifluoro-methyl)pyridin-2-yl)-1,2,4-thiadiazol-5-ylamino)pyridin-3-yl)-N-methylcyclo-propanecarbox-amide]	200 to 500 nM
CC(C)Oc1ccc(-c2nsc(Nc3ncc(C(F)(F)F)cc3N(C)C(=O)C3CC3)n2)nc1 [Compound 248, N-(2-(3-(5-isopropoxy-pyridin-2-yl)-1,2,4-thiadiazol-5-ylamino)-5-(trifluoro-methyl)pyridin-3-yl)-N-methylcyclo-propanecarbox-amide]	< 200 nM
CC(C)c1cccnc1Nc1nc(-c2ccc(O[C@@H]3CCN(C4CC4)C[C@@H]3F)cn2)ns1 [Compound 89, 3-(5-((3S,4R)-1-cyclopropyl-3-fluoro-piperidin-4-yloxy)pyridin-2-yl)-N-(3-isopropylpyridin-2-yl)-1,2,4-thiadiazol-5-amine]	< 200 nM
CC(=O)Nc1cccnc1Nc1nc(-c2ccc(OC(C)C)cn2)ns1 [Compound 161, N-(2-(3-(5-isopropoxy-pyridin-2-yl)-1,2,4-thiadiazol-5-ylamino)pyridin-3-yl)acetamide]	500 to 5000 nM
CC(=O)N(C)c1cccnc1Nc1nc(-c2cc3c(cn2)N(C)CC3)ns1 [Compound 202, N-methyl-N-(2-(3-(1-methyl-2,3-dihydro-1H-pyrrolo[2,3-c]pyridin-5-yl)-1,2,4-thiadiazol-5-ylamino)pyridin-3-yl)acetamide]	500 to 5000 nM
CC(C)Oc1cnc(-c2nsc(Nc3ncccc3C(=O)N3CCCC3)n2)cc1C(F)(F)F [Compound 251, (2-(3-(5-isopropoxy-4-(trifluoromethyl)pyridin-2-yl)-1,2,4-thiadiazol-5-ylamino)pyridin-3-yl) (pyrrolidin-1-yl)methanone]	500 to 5000 nM
CC(=O)N(C)c1ccc(-c2nsc(Nc3ncccc3C)n2)nc1 [Compound 269, N-methyl-N-(6-(5-(3-methylpyridin-2-ylamino)-1,2,4-thiadiazol-3-yl)pyridin-3-yl)acetamide]	500 to 5000 nM
CC(C)c1cccnc1Nc1nc(-c2ccc(OC3CC3)cn2)ns1 [Compound 74, 3-(5-cyclopropoxy-pyridin-2-yl)-N-(3-isopropylpyridin-2-yl)-1,2,4-thiadiazol-5-amine]	< 200 nM
COc1ccc(-c2nsc(Nc3ccc(OC(C)C)cn3)n2)nc1 [Compound 215, N-(5-isoprop-oxypyridin-2-yl)-3-(5-methoxy-pyridin-2-yl)-1,2,4-thiadiazol-5-amine]	500 to 5000 nM
c1ccc(-c2ccnc(Nc3nc(-c4ccccn4)ns3)c2)cc1 [Compound 237, N-(4-phenyl-pyridin-2-yl)-3-(pyridin-2-yl)-1,2,4-thiadiazol-5-amine]	200 to 500 nM
CC(C)Oc1cccnc1-c1nsc(Nc2cc(N3CCCC3)ccn2)n1 [Compound 94, 3-(3-isopropoxy-pyridin-2-yl)-N-(4-(pyrrolidin-1-yl)pyridin-2-yl)-1,2,4-thiadiazol-5-amine]	500 to 5000 nM
c1ccc(-c2nsc(Nc3ccc(OC4CCOCC4)cn3)n2)nc1 [Cmpd 9, 3-(pyridin-2-yl)-N-(5-(tetrahydro-2H-pyran-4-yloxy)pyridin-2-yl)-1,2,4-thiadiazol-5-amine]	500 to 5000 nM
O=C1CCCN1c1cccnc1Nc1nc(-c2ccc(NC34CC(C3)C4)cn2)ns1 [Compound 204, 1-(2-(3-(5-(bicyclo [1.1.1]pentan-1-ylamino)pyridin-2-yl)-1,2,4-thiadiazol-5-ylamino)pyridin-3-yl)pyrrolidin-2-one]	500 to 5000 nM
c1ccc(-c2nsc(Nc3ccc(N4CCCCC4)cn3)n2)nc1 [Cmpd 6, N-(5-(piperidin-1-yl)pyridin-2-yl)-3-(pyridin-2-yl)-1,2,4-thiadiazol-5-amine]	500 to 5000 nM
CNc1cccnc1Nc1nc(-c2cc(C)ccn2)ns1 [Compound 23, N3-methyl-N2-(3-(4-methylpyridin-2-yl)-1,2,4-thiadiazol-5-yl) pyridine-2,3-diamine]	200 to 500 nM
COc1ccnc(-c2nsc(Nc3ccc(C(C)C)cn3)n2)c1 [Compound 177, N-(5-isopropyl-pyridin-2-yl)-3-(4-methoxy-pyridin-2-yl)-1,2,4-thiadiazol-5-amine]	< 200 nM
COc1ccc(Nc2nc(-c3ccccn3)ns2)nc1 [Cmpd 2, N-(5-methoxy-pyridin-2-yl)-3-(pyridin-2-yl)-1,2,4-thiadiazol-5-amine]	500 to 5000 nM
CC(C)Oc1ccc(-c2nsc(Nc3ncccc3N3CCCC3=O)n2)nc1 [Compound 178, 1-(2-(3-(5-isopropoxy-pyridin-2-yl)-1,2,4-thiadiazol-5-ylamino)pyridin-3-yl)pyrrolidin-2-one]	500 to 5000 nM
